# In patent US7321046B2, “Analogs of dictyostatin, intermediates therefor and methods of synthesis thereof” (University of Pittsburgh, priority 2002, dated 2008):
# Settings: from C=C/C=C\[C@H](C)[C@H](O)[C@@H](C)[C@@H](CC[C@H](C)C[C@@H](C)[C@@H](O[Si](C)(C)C(C)(C)C)[C@@H](C)/C=C\[C@H](C[C@H](O[Si](C)(C)C(C)(C)C)[C@@H](C)/C=C/C=C\C(=O)O)O[Si](C)(C)C(C)(C)C)O[Si](C)(C)C(C)(C)C; ester bond; 2,4,6-trichlorobenzoyl chloride / Et3N / DMAP; toluene; 1.94 mM; 25.0 °C; 16.0 h; 2 steps
smiles,measurement,value
C=C/C=C\[C@H](C)[C@@H]1OC(=O)/C=C\C=C\[C@H](C)[C@@H](O[Si](C)(C)C(C)(C)C)C[C@H](O[Si](C)(C)C(C)(C)C)/C=C\[C@H](C)[C@H](O[Si](C)(C)C(C)(C)C)[C@H](C)C[C@@H](C)CC[C@@H](O[Si](C)(C)C(C)(C)C)C1C (stereo in doubt),"ring closure, yield of all isomers",78%
